16 compounds from patent publication US12692264B2, “Pyrimidine or pyridine derivative, preparation method therefor, and application thereof in pharmacy” (ABBISKO THERAPEUTICS CO., LTD., priority 2021, dated 2026) can be followed below.

Test [1] concerns the target Ba/F3 EGFR-D770-N771ins_SVD (Homo sapiens, UniProt P00533, DUP768-770, cells depend on it). Briefly: Cell proliferation study (CellTiter-Glo, 72 hrs), Ba/F3 EGFR-D770-N771ins_SVD. In kind it is cell-based. The note with it: CTG, * = average of multiple measurements, read-out: Ba/F3 EGFR-D770-N771ins_SVD IC50. How it is done: (§1) (I) Reagents and Materials
(§2) • Fetal bovine serum FBS (GBICO, Cat #10099-141); • CellTiter-Glo® luminescent cell viability assay kit (Promega, Cat #G7572); • Black transparent flat-bottom 96-well plate (Corning®, Cat #3603). (II) Instruments • SpectraMax multi-label microplate reader MD, 2104-0010A; • Carbon dioxide incubator, Thermo Scientific 3100 series; • Biological safety cabinet, Thermo Scientific, 1300 series model A2; • Inverted microscope, Olympus, CKX41SF; • Siemens refrigerator KK25E76T1. (III) Cell Lines and Culture Conditions
(§3) (IV) Experimental Procedures 1. Cell Culture and Inoculation: • (1) Cells in the logarithmic growth phase were harvested and counted using a […]. The cell viability was determined by the trypan blue dye exclusion method to ensure cell viability above 90%. • (2) The cell concentration was adjusted to reach a desired final density; 90 μL of cell suspension was added to a 96-well plate. • (3) The cells were incubated overnight in the 96-well plate at 37° C., 5% CO2 and with 95% humidity. 2. T0 Benchmark Data: • (1) 10 μL of PBS was added to each well of the TO plate containing the cells. • (2) The CTG reagent was thawed and the cell plate was equilibrated to room temperature for 30 min. • (3) An equal volume of CTG solution was added to each well. • (4) The cells were lysed by shaking on an orbital shaker for 5 min. • (5) The cell plate was left to stand at room temperature for 20 min to stabilize the fluorescence signal. • (6) The fluorescence signal values of TO were read. 3. Dilution and Addition of Compounds • (1) According to the compound information table, a corresponding volume of DMSO was added to the corresponding compound powder to prepare a 10 mM stock solution. • (2) A 1000-fold, 3.16-fold-diluted compound solution was prepared. • (3) The 1000× diluted compound solution was diluted 100-fold with PBS to prepare a 10-fold compound solution with a maximum concentration of 10 μM, including 9 concentrations, with 3.16-fold dilution, and 10 μL of the medicament solution was added to each well of the 96-well plate to seed the cells. Triplicate wells were set for each compound concentration, with a final concentration of DMSO being 0.1%. • (4) The cells were placed in the 96-well plate containing the medicament at 37° C., 5% CO2 and with 95% humidity, and cultured for 72 hrs before CTG analysis. 4. Fluorescence Signal Reading • (1) The CTG reagent was thawed and the cell plate was equilibrated to room temperature for 30 min. • (2) An equal volume of CTG solution was added to each well. • (3) The cells were lysed by shaking on an orbital shaker for 5 min. • (4) The cell plate was left to stand at room temperature for 20 min to stabilize the fluorescence signal. • (5) The fluorescence values were read. 5. Data Processing
(§4) Data were analyzed using GraphPad Prism 7.0 software and fitted data were regressed using non-linear S-curves to obtain dose-response curves from which IC50 values (in nM) were calculated.
On the technique in general: ATP-based viability assays read luminescence as a measure of living cells.

Test [2] relates to A431 (EGFR-WT). The experiment in a line: Cell proliferation study (CellTiter-Glo, 72 hrs), A431. In kind it is cell-based. As to conditions: Homo sapiens, A-431, A431 cells, CTG, * = average of multiple measurements. Here is the method: as §1, §2, §3, §4

Sequence of Ba/F3 EGFR-D770-N771ins_SVD (P00533 with tags, fused parts or gaps DUP768-770): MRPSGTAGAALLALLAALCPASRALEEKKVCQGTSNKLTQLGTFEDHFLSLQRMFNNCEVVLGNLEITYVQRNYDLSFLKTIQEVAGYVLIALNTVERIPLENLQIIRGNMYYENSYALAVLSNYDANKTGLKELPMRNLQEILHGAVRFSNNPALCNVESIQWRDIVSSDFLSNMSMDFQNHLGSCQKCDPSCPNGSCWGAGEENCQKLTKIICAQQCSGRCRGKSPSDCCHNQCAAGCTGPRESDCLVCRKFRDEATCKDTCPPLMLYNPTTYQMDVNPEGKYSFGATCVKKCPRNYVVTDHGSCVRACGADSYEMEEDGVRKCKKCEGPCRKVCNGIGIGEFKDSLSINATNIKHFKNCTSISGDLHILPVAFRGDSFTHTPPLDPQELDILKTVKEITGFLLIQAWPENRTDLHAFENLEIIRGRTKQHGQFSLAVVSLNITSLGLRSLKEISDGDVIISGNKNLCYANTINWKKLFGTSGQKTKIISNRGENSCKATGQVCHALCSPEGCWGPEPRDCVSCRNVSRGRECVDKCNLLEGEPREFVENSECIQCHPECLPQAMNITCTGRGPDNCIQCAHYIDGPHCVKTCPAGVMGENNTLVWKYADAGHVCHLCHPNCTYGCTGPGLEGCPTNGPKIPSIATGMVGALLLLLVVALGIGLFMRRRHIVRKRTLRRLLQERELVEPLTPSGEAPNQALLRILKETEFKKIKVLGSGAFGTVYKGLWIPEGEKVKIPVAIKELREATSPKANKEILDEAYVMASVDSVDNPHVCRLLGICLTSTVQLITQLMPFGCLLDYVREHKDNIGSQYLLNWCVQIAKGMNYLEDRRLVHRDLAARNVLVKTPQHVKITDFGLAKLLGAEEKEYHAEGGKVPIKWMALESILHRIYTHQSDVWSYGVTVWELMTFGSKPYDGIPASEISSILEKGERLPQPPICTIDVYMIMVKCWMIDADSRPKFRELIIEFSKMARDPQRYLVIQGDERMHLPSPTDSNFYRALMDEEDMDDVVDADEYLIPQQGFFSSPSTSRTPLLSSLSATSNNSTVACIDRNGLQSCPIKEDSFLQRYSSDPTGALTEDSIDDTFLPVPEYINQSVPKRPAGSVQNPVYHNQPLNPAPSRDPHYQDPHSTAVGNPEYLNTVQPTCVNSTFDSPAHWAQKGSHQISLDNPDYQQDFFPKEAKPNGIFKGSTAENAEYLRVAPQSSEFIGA

`C=CC(=O)Nc1cc(Nc2ncc(C(=O)OC(C)C)c(N3CC(C)(C)c4nc(C5CC5)ccc43)n2)c(OC)cc1N(C)CCN(C)C` [Example 4, isopropyl 2-((5-acrylamido-4-((2-(dimethylami-no)ethyl)(methyl)amino)-2-methoxy-phenyl)amino)-4-(5-cyclopropyl-3,3-dimethyl-2,3-dihydro-1H-pyrrolo[3,2-b]pyridin-1-yl)pyrimidine-5-carboxylate]: the GI50 in test [1] was 59.5 nM. The same compound yielded a half-maximal inhibitory concentration (IC50) in test [2] of 163 nM. For `[2H]C([2H])([2H])Oc1cc(N(C)CCN(C)C)c(NC(=O)C=C)cc1Nc1ncc(C(=O)OC(C)C)c(N2CC(C)(C)c3nc(C)ccc32)n1` [Example 27, isopropyl 2-((5-acrylamido-4-((2-(dimethylami-no)ethyl)(methyl)amino)-2-(methoxy-d3)phenyl)amino)-4-(3,3,5-trimethyl-2,3-dihydro-1H-pyrrolo[3,2-b]pyridin-1-yl)pyrimidine-5-carboxylate], in that order: 14.1 nM and 580 nM. For `C=CC(=O)Nc1cc(Nc2ncc(C(=O)OC(C)C)c(N3CC(C)(C)c4nc(C)ccc43)n2)c(OC)nc1N1CC[C@@H](N(C)C)C1` [Example 35, isopropyl (R)-2-((5-acrylamido-6-(3-(dimethyl-amino)pyrrolidin-1-yl)-2-methoxy-pyridin-3-yl)amino)-4-(3,3,5-trimethyl-2,3-dihydro-1H-pyrrolo[3,2-b]pyridin-1-yl)pyrimidine-5-carboxylate], in that order: 36 nM and 1070 nM. As to `C=CC(=O)Nc1cc(Nc2ncc(C(=O)OC(C)C)c(N3CC(C)(C)c4nc(C)ccc43)n2)c(OC)cc1N(C)C[C@@H]1CCCN1C` [Example 41, isopropyl (S)-2-((5-acrylamido-2-methoxy-4-(methyl((1-methylpyrrolidin-2-yl)methyl)amino)phenyl)amino)-4-(3,3,5-trimethyl-2,3-dihydro-1H-pyrrolo[3,2-b]pyridin-1-yl)pyrimidine-5-carboxylate], in test [1], the GI50 is 36.3 nM. In test [2], this compound registered an IC50 of 213 nM. Consider `C=CC(=O)Nc1cc(Nc2ncc(C(=O)OC(C)C)c(N3CC(C)(C)c4nc(C)ccc43)n2)c(OC)nc1N1CCC[C@H]1CN(C)C` [Example 43, isopropyl (S)-2-((5-acrylamido-6-(2-((dimethyl-amino)methyl)pyrrolidin-1-yl)-2-meth-oxypyridin-3-yl)amino)-4-(3,3,5-tri-methyl-2,3-dihydro-1H-pyrrolo[3,2-b]pyridin-1-yl)pyrimidine-5-carboxylate], for which the GI50 in test [1] came out at 453 nM. On the same count and under the same terms, the same measure for `C=CC(=O)Nc1cc(Nc2ncc(C(=O)OC(C)C)c(N3CC(C)(C)c4nc(C)ccc43)n2)c(OC)cc1N(CC)CCN(C)C` [Example 45, isopropyl 2-((5-acrylamido-4-((2-(dimethylami-no)ethyl)(ethyl)amino)-2-methoxy-phenyl)amino)-4-(3,3,5-trimethyl-2,3-dihydro-1H-pyrrolo[3,2-b]pyridin-1-yl)pyrimidine-5-carboxylate]: 76.2 nM; for `C=CC(=O)Nc1cc(Nc2ncc(C(=O)OC(C)C)c(N3CC4(CC4)c4nc(C)ccc43)n2)c(OC)cc1N1CCC[C@H]1CN(C)C` [Example 51, isopropyl (S)-2-((5-acrylamido-4-(2-((dimethyl-amino)methyl)pyrrolidin-1-yl)-2-meth-oxyphenyl)amino)-4-(5′-methyl-spiro(cyclopropane-1,3′-pyrrolo[3,2-b]pyridin)-1′(2′H)-yl)pyrimidine-5-carboxylate]: 199 nM. The same measure, in the same setting: the same measure for `[2H]C1([2H])N(c2nc(Nc3cc(NC(=O)C=C)c(N4CCN(C5CC5)CC4)cc3OC)ncc2C(=O)OC(C)C)c2ccc(C)nc2C1(C)C` [Example 53, isopropyl 2-((5-acrylamido-4-(4-cyclopropyl-piperazin-1-yl)-2-methoxy-phenyl)amino)-4-(3,3,5-trimethyl-2,3-dihydro-1H-pyrrolo[3,2-b]pyridin-1-yl-2,2-d2)pyrimidine-5-carboxylate]: 552 nM.

In the case of `C=CC(=O)Nc1cc(Nc2ncc(C(=O)OC(C)C)c(N3CC(C)(C)c4nc(C)ccc43)n2)c(OC)cc1N1CCC[C@@H](N(C)C)C1` [Example 61, isopropyl (R)-2-((5-acrylamido-4-(3-(dimethyl-amino)piperidin-1-yl)-2-methoxy-phenyl)amino)-4-(3,3,5-trimethyl-2,3-dihydro-1H-pyrrolo[3,2-b]pyridin-1-yl)pyrimidine-5-carboxylate], in test [1], the GI50 came to 255 nM.

Turning to `[2H]C([2H])([2H])N(CCN(C)C)c1cc(OC)c(Nc2ncc(C(=O)OC(C)C)c(N3CC4(CC4)c4nc(C)ccc43)n2)cc1NC(=O)C=C` [Example 68, isopropyl 2-((5-acrylamino-4-((2-(dimethylami-no)ethyl)(methyl-d3)amino)-2-methoxyphenyl)amino)-4-(5′-methylspiro(cyclopropane-1,3′-pyrrolo[3,2-b]pyridin)-1′(2′H)-yl)pyrimidine-5-carboxylate], the GI50 in test [1] amounted to 30.6 nM. With `C=CC(=O)Nc1cc(Nc2ncc(C(=O)OC(C)C)c(N3CC(C)(C)c4nc(C#CC)ccc43)n2)c(OC)cc1N1CCN(C)CC1` [Example 70, isopropyl 2-((5-acrylamido-2-methoxy-4-(4-methylpiperazin-1-yl)phenyl)amino)-4-(3,3-dimethyl-5-(prop-1-yn-1-yl)-2,3-dihydro-1H-pyrrolo[3,2-b]pyridin-1-yl)pyrimidine-5-carboxylate], in test [1], the GI50 was found to be 501 nM. Still for that read-out and setting: with `C=CC(=O)Nc1cc(Nc2ncc(C(=O)OC(C)C)c(N3CC(C)(C)c4nc(C#CC)ccc43)n2)c(OC)cc1N1CCN(C2CC2)CC1` [Example 75, isopropyl 2-((5-acrylamido-4-(4-cyclopropyl-piperazin-1-yl)-2-methoxyphenyl)ami-no)-4-(3,3-dimethyl-5-(prop-1-yn-1-yl)-2,3-dihydro-1H-pyrrolo[3,2-b]pyridin-1-yl)pyrimidine-5-carboxylate] the figure was 2850 nM; with `C=CC(=O)Nc1cc(Nc2ncc(C(=O)OC(C)C)c(N3CC(C)(C)c4nc5c(cc43)CCC5)n2)c(OC)cc1N(C)CCN(C)C` [Example 80, isopropyl 2-((5-acrylamido-4-((2-(dimethylami-no)ethyl)(methyl)amino)-2-methoxy-phenyl)amino)-4-(3,3-dimethyl-3,5,6,7-tetrahydrocyclopenta[b]pyrrolo[2,3-e]pyridin-1(2H)-yl)pyrimidine-5-carboxylate], 44.9 nM; with `C=CC(=O)Nc1cc(Nc2ncc(C(=O)OC(C)C)c(N3CC(C)(C)c4nc(Br)ccc43)n2)c(OC)cc1N(C)CCN(CC)CC` [Example 90, isopropyl 2-((5-acrylamido-4-((2-(diethyl-amino)ethyl)(methyl)amino)-2-methoxyphenyl)amino)-4-(5-bromo-3,3-dimethyl-2,3-dihydro-1H-pyrrolo[3,2-b]pyridin-1-yl)pyrimidine-5-carboxylate], 116 nM.

In the case of `C=CC(=O)Nc1cc(Nc2ncc(C(=O)OC(C)C)c(N3CC(C)(C)c4cc(F)c(F)cc43)n2)c(OC)cc1N1CC[C@@H](N(C)C)C1` [Example 94, isopropyl (R)-2-((5-acrylamido-4-(3-(dimethyl-amino)pyrrolidin-1-yl)-2-methoxy-phenyl)amino)-4-(5,6-difluoro-3,3-dimethylindolin-1-yl)pyrimidine-5-carboxylate], the GI50 in test [1] came to 60 nM. On the same count and under the same terms, with `C=CC(=O)Nc1cc(Nc2ncc(C(=O)OC(C)C)c(N3CC(C)(C)c4nc(C#CC)ccc43)n2)c(OC)cc1N1CCN(C)C(C)C1` (centres unmarked) [Example 95, isopropyl 2-((5-acrylamido-4-(3,4-dimethyl-piperazin-1-yl)-2-methoxy-phenyl)amino)-4-(3,3-dimethyl-5-(prop-1-yn-1-yl)-2,3-dihydro-1H-pyrrolo[3,2-b]pyridin-1-yl)pyrimidine-5-carboxylate] the figure was 254 nM.

By IC50 is commonly meant the concentration that gives 50% inhibition. Low values mean greater potency, high ones weaker potency.
